Tests used:
Type in all cases: cell-based, mouse
[1] = tested on: 281 bp ARF promoter fragment; experiment: Transactivation of ARF promoter-luciferase reporter in NIH-3T3 cells; details: NIH-3T3, 281 bp ARF promoter fragment-luciferase
Method: Transactivation assays. NIH-3T3 cells were transfected with 4 μg of pGL2-ARFpro BamHI or its DMP1 binding site mutant, with or without increasing amount of pFLEX-DMP1, pEVRFO-Ets1, pCMV-Ets2, pRcRSV-Elfl, pdEB-Fli1, p(IEB-EWS-Fli1 or pCMV-E2F-1 (89-437), and 4 μg β-actin SEAP control vectors [Inoue and Sherr, Mol. Cell. Biol. 18: 1590-1600 (1998); Inoue et al., J. Biol. Chem. 273:29188-29194 (1998); Davis and Roussel, Gene 171:265-269 (1996); Baily et al., Mol. Cell. Biol. 14:3230-3241 (1994)]. Transfections and normalization of luciferase levels with internal control SEAP levels were performed as described [Inoue and Sherr, Mol. Cell. Biol. 18:1590-1600 (1998)].
Similarly, DMP1 deletion mutants defective in transactivation [Inoue and Sherr, Mol. Cell. […] Mutation of the DMP1 binding site within the ARF promoter [changing CCCGGATGC, (SEQ ID NO:33) to CCCGTCGAC, (SEQ ID NO:42)] also completely abolished transactivation by wild-type DMP1 (FIG. 14C, mutant reporter). Therefore, sequences within the −189 to −181 ARF promoter segment were the only ones responsible for DMP1-mediated transactivation. Although Ets1 could bind to a 23 base pair oligonucleotide containing the DMP1 consensus site (FIG. 14B), several Ets proteins were unable to induce significant reporter gene expression from the more complex 281 base pair ARF promoter (FIG. 14C). […]

p19ARF = experiment: Induction of endogenous p19ARF protein in retrovirus-infected MEFs
Method: Virus production and infection. Human kidney 293T cells were transfected with a helper ecotropic retrovirus plasmid defective in psi-2 packaging sequences, together with pSRα vectors containing murine DMP1, human c-Myc, human E2F-1, or human Ets1 cDNAs [Zindy, et al., Genes Dev. 12:2424-2433 (1998); Inoue and Sherr, J. Biol. Chem. 273:29188-29194 (1998)]. Viruses were harvested every 6 hours 24-72 hours after transfection, filtered and stored at 4° C. until used for infection [Zindy, et al., Genes Dev. 12:2424-2433 (1998)]. In order to construct a retroviral vector containing DMP1 linked to a mutated tamoxifen-responsive element of the estrogen receptor (DMP1-ER™), a 3′ 0.3 kb EcoNI DNA fragment of murine DMP1 cDNA was amplified by PCR using
RNA and protein expression. Quantitative RT-PCRs employed specific primers for murine ARF exon 1β (30 cycles) and for β-actin (20 cycles) used as a control [Zindy et al., Oncogene 15:203-211 (1997)]. […]
(§1) Based on the above observations, it was determined as to whether introduction of DMP1 would induce synthesis of the endogenous ARF protein in normal diploid fibroblast strains. […] Although the blot was normalized for protein input, the levels of p19^ARF induced by DMP1 were calculated to be 2-fold higher than those induced by Myc, because fewer cells were productively infected with the DMP1 virus in this experiment (see FIG. 15A).

wild-type MEFs = experiment: BrdU incorporation / cell cycle arrest in wild-type MEFs; details: retroviral infection
Method: BrdU incorporation and immunofluorescence. Wild-type or ARF-null MEFs (4×10^4 cells) were seeded on gelatin-coated coverslips 16 hours before virus infection. Cells were infected three times with empty vector, or vectors expressing murine DMP1, human c-Myc, human E2F-1, or human Ets1. Cells were labeled 36 hours after virus infection with bromodeoxyuridine (BrdU, Sigma) for 14 hours in complete medium. For pulse labeling, MEFs were treated with 2 μM4-HT for 36 hours and labeled with BrdU for three hours at different intervals throughout the inductive phase. Cells were fixed in ice-cold methanol-acetone (1:1) for 10 min at −20° C. and then were stained with affinity-purified antibodies to DMP1 (AF) [Hirai and Sherr, Mol. Cell. […]
as §1

## DMP1: murine cyclin D-associated myb-like transcription factor, 761 amino acids, SEQ ID NO:1
[1]
  ARF promoter reporter gene expression: enhanced reporter gene expression
p19ARF; corrected for fraction of productively infected cells
  levels of p19ARF induced relative to those induced by Myc: 2 fold
p19ARF; early passage MEFs, retroviral infection
  ARF protein synthesis: induced ARF protein synthesis
wild-type MEFs
  cell cycle arrest: underwent cell cycle arrest
